Measured values from patent US20230295157A1, “3-(1H-IMIDAZOL-2-YL)-2,3,8,8A-TETRAHYDROINDOLIZIN-5(1H)-ONE DERIVATIVES USEFUL AS FACTOR XIA INHIBITORS” (JANSSEN PHARMACEUTICA NV, priority 2020, published 2023).
Like-named read-outs stand apart in the source and are kept apart here.

Tests used:
[1] = target: Factor XIa (Homo sapiens (Human), UniProt P03951); test: Factor XIa inhibition assay (FLINT) utilizing a fluorophore-quencher pair peptide substrate; assay type: biochemical; settings: 30 min preincubation, kinetic reads over 30 min, read-out: FXIa Kin Inh IC50
Factor XIa, sequence (P03951 388-625): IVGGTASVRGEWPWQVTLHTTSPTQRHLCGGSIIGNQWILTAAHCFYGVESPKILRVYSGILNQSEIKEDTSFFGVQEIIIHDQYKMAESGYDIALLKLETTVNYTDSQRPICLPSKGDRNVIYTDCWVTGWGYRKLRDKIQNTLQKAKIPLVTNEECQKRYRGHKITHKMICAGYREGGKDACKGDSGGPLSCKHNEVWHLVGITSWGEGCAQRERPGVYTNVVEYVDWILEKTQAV
Factor XIa, sequence (P03951 19-387 partner): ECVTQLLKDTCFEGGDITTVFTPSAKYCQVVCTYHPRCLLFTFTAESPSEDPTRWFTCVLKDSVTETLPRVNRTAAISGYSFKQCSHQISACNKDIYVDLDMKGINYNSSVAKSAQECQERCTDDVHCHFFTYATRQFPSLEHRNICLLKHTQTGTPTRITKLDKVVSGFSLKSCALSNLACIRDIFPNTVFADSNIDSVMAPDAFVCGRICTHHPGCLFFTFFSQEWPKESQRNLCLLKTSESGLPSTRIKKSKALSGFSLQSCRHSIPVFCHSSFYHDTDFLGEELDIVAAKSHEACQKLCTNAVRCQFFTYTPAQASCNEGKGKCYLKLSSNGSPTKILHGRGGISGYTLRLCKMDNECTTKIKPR
Procedure, shortened: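 FXIa ([…]) preincubated 30 min with compound (11-point 3-fold dilution, top 100 nM, 2% DMSO), then 15 μM quenched FXI Arg146-based peptide added; Tris pH 7.5, CaCl2, BSA, CHAPS. Fluorescence 485/520 nm read kinetically every 5 min over 30 min at RT; IC50 by 4-parameter fit.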

[2] = target: human plasma kallikrein (Homo sapiens (Human), UniProt P03952); test: Kallikrein inhibition assay (FLINT) utilizing a quenched AMC peptide substrate; assay type: biochemical; settings: 30 min preincubation, read-out: Kallikrein Kin Inh IC50
human plasma kallikrein, sequence (P03952 391-638): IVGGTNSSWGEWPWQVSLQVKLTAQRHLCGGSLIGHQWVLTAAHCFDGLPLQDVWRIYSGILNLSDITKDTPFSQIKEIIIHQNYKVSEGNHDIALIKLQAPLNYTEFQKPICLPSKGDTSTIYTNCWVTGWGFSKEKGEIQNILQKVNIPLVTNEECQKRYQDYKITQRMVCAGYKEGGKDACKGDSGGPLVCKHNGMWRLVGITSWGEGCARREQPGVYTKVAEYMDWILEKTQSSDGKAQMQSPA
human plasma kallikrein, sequence (P03952 20-390 partner): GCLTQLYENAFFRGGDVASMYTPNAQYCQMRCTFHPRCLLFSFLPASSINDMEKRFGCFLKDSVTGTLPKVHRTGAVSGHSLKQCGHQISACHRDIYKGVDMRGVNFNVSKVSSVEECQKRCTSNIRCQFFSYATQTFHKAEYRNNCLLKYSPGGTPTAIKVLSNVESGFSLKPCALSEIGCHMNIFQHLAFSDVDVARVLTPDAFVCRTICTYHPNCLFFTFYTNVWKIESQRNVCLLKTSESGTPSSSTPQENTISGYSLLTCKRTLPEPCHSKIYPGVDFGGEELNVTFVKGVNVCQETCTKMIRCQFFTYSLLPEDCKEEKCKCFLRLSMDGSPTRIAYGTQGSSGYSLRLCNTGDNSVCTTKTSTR
Procedure, shortened: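 Enzyme (2 nM final) pre-incubated 30 min at room temperature with compound (11-point, 3-fold, top 1 μM, 2% DMSO), then 50 μM Z-Gly-Pro-Arg-AMC added in Tris pH 7.5 buffer. Kinetic fluorescence 340/440 nm every 5 min over 30 min; IC50 from 4-parameter logistic fit.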

[3] = 5Fam-KLTRAETV-K5Tamra substrate 15 μM
[4] = kinetic reads over 30 min, Z-Gly-Pro-Arg-AMC substrate 50 μM
[5] = 5Fam-[…]-K5Tamra substrate 15 μM

SMILES | IC50 [1, 3] | IC50 [2, 4] | IC50 [1, 5] | IC50 ([2]; μM, kinetic reads)
N#CC1(c2nccc(-c3cnc([C@@H]4CC[C@@H]5CC(c6c(-n7cnnn7)ccc(Cl)c6F)=CC(=O)N54)[nH]3)c2F)COC1 (single isomer, unassigned) [Example 138, 3-(4-(2-((3S,8aR*)-7-(3-chloro-2-fluoro-6-(1H-tetrazol-1-yl)phenyl)-5-oxo-1,2,3,5,8,8a-hexahydroindolizin-3-yl)-1H-imidazol-5-yl)-3-fluoropyridin-2-yl)oxetane-3-carbonitrile] | 32 nM | 0.138 µM |  | 
N#CC1CN(c2nccc(-c3cnc([C@H]4CC[C@@H]5CC(c6c(-n7cnnn7)ccc(Cl)c6F)=CC(=O)N54)[nH]3)c2F)C1 (single isomer, unassigned) [Example 102, 1-(4-(24(3R*,8aR)-7-(3-chloro-2-fluoro-6-(1H-tetrazol-1-yl)phenyl)-5-oxo-1,2,3,5,8,8a-hexahydroindolizin-3-yl)-1H-imidazol-5-yl)-3-fluoropyridin-2-yl)azetidine-3-carbonitrile] |  | 0.0096 µM | 10.3 nM | 
O=C1C=C(c2c(-n3cnnn3)ccc(Cl)c2F)C[C@@H]2CC[C@@H](c3ncc(-c4ccnc([C@H](O)C(F)(F)F)c4F)[nH]3)N12 (single isomer, unassigned) [Example 170] | 17.9 nM | 0.0318 µM |  | 
COC(=O)Nc1ccc(-c2cnc([C@@H]3CC[C@H]4CC(c5c(OC(F)F)ccc(Cl)c5F)=CC(=O)N43)[nH]2)cc1 (relative stereo) [Example 320, Methyl (4-(2-((3S,8aS)-7-(3-Chloro-6-(difluoromethoxy)-2-fluorophenyl)-5-oxo-1,2,3,5,8,8a-hexahydroindolizin-3-yl)-1H-imidazol-5-yl)phenyl)carbamate] |  | 0.0038 µM | 23.5 nM | 
O=C(O)c1ccc(-c2c[nH]c(C3CCC4CC(c5cc(Cl)ccc5-n5cc(C(F)(F)F)nn5)=CC(=O)N43)n2)s1 (centres unmarked) [Example 373, 5-(2-(7-(5-chloro-2-(4-(trifluoromethyl)-1H-1,2,3-triazol-1-yl)phenyl)-5-oxo-1,2,3,5,8,8a-hexahydroindolizin-3-yl)-1H-imidazol-4-yl)thiophene-2-carboxylic acid] | 0.7 nM | 0.0396 µM |  | 
CC1(C)C[C@@H](c2ncc(-c3ccc(N)nc3F)[nH]2)N2C(=O)C=C(c3c(-n4cnnn4)ccc(Cl)c3F)C[C@@H]21 (relative stereo) [Example 336, (3S,8aR)-3-(5-(6-Amino-2-fluoropyridin-3-yl)-1H-imidazol-2-yl)-7-(3-chloro-2-fluoro-6-(1H-tetrazol-1-yl)phenyl)-1,1-dimethyl-2,3,8,8a-tetrahydroindolizin-5(1H)-one] |  | 0.0479 µM | 9.3 nM | 
Nc1ccc(-c2cnc([C@@H]3CC[C@@H]4CC(c5cc(Cl)ccc5-n5cnnn5)=CC(=O)N43)[nH]2)c(F)n1 (single isomer, unassigned) [Example 120, (3*S,8aR)-3-(5-(6-amino-2-fluoropyridin-3-yl-5-d)-1H-imidazol-2-yl)-7-(5-chloro-2-(1H-tetrazol-1-yl)phenyl-3-d)-2,3,8,8a-tetrahydroindolizin-5(1H)-one] | 4.5 nM | 0.0677 µM |  | 
CC(O)COc1nccc(-c2cnc([C@@H]3CC[C@@H]4CC(c5c(-n6cnnn6)ccc(Cl)c5F)=CC(=O)N43)[nH]2)c1F (single isomer, unassigned) [Example 28] | 1.3 nM | 0.0094 µM |  | 
C[C@H](Oc1nccc(-c2cnc([C@@H]3CC[C@@H]4CC(c5c(-n6cnnn6)ccc(Cl)c5F)=CC(=O)N43)[nH]2)c1F)c1nnco1 (relative stereo) [Example 128, (3S*,8aR*)-3-(5-(2-((S*)-1-(1,3,4-oxadiazol-2-yl)ethoxy)-3-fluoropyridin-4-yl)-1H-imidazol-2-yl)-7-(3-chloro-2-fluoro-6-(1H-tetrazol-1-yl)phenyl)-2,3,8,8a-tetrahydroindolizin-5(1H)-one] |  | 0.0128 µM | 6.1 nM | 
O=C1C=C(c2c(-n3cnnn3)ccc(Cl)c2F)C[C@H]2CC[C@H](c3ncc(-c4ccnc(OC[C@@H]5COCCO5)c4F)[nH]3)N12 (relative stereo) [Example 156, (3*R,8aR)-3-(5-(2-(((S)-1,4-dioxan-2-yl)methoxy)-3-fluoropyridin-4-yl)-1H-imidazol-2-yl)-7-(3-chloro-2-fluoro-6-(1H-tetrazol-1-yl)phenyl)-2,3,8,8a-tetrahydroindolizin-5(1H)-one] |  | 0.0191 µM | 13.8 nM | 
COC(=O)Nc1ccc(-c2cnc([C@@H]3CCC4CC(c5c(-n6cnnn6)ccc(Cl)c5F)=CC(=O)N43)[nH]2)nc1 (stereo partly drawn) [Example 326, Methyl (6-(2-((3S)-7-(3-Chloro-2-fluoro-6-(1H-tetrazol-1-yl)phenyl)-5-oxo-1,2,3,5,8,8a-hexahydroindolizin-3-yl)-1H-imidazol-5-yl)pyridin-3-yl)carbamate] | 1 nM | 0.0124 µM |  | 
O=C1C=C(c2c(-n3cnnn3)ccc(Cl)c2F)C[C@H]2CC[C@@H](c3ncc(-c4ccnc(-n5nccn5)c4)[nH]3)N12 [Example 86, (3S,8aR)-7-[3-chloro-2-fluoro-6-(tetrazol-1-yl)phenyl]-3-[5-[2-(triazol-2-yl)-4-pyridyl]-1H-imidazol-2-yl]-2,3,8,8a-tetrahydro-1H-indolizin-5-one] | 4.6 nM | 0.0032 µM |  | 
O=C1C=C(c2c(-n3cnnn3)ccc(Cl)c2F)C[C@H]2CC[C@@H](c3ncc(-c4ccnc(C[C@@H](O)C(F)(F)F)c4F)[nH]3)N12 (single isomer, unassigned) [Example 144, (3S,8aR)-7-(3-chloro-2-fluoro-6-(1H-tetrazol-1-yl)phenyl)-3-(5-(3-fluoro-2-((*R)-3,3,3-trifluoro-2-hydroxypropyl)pyridin-4-yl)-1H-imidazol-2-yl)-2,3,8,8a-tetrahydroindolizin-5(1H)-one] | 3.1 nM | 0.0435 µM |  | 
NC(=O)c1ccc(-c2cnc([C@@H]3CC[C@H]4CC(c5c(-n6cc(C(F)(F)F)nn6)ccc(Cl)c5F)=CC(=O)N43)[nH]2)cn1 (single isomer, unassigned) [Example 213] | 39.4 nM | 0.197 µM |  | 

Results, then the compound that gave them:

IC50 [1, 3] | IC50 [2, 4] | IC50 [1, 5] | IC50 ([2]; μM, kinetic reads) | SMILES
0.5 nM | 0.0081 µM |  |  | [2H]c1cc(Cl)c(F)c(C2=CC(=O)N3[C@H](CC[C@H]3c3nc(-c4ccc(N)nc4F)c[nH]3)C2)c1-n1cnnn1 [Example 153, (3S,8aR)-3-[4-(6-amino-2-fluoro-3-pyridyl)-1H-imidazol-2-yl]-7-[3-chloro-5-deuterio-2-fluoro-6-(tetrazol-1-yl)phenyl]-2,3,8,8a-tetrahydro-1H-indolizin-5-one]
0.4 nM | 0.0011 µM |  |  | O=C1C=C(c2c(-n3cnnn3)ccc(Cl)c2F)C[C@H]2CC[C@H](c3nc(Cl)c(-c4ccnc(C5(O)CC5)c4)[nH]3)N12 [Example 178, (3R,8aR)-7-(3-chloro-2-fluoro-6-(1H-tetrazol-1-yl)phenyl)-3-(4-chloro-5-(2-(1-hydroxycyclopropyl)pyridin-4-yl)-1H-imidazol-2-yl)-2,3,8,8a-tetrahydroindolizin-5(1H)-one]
1.4 nM | 0.019 µM |  |  | O=C1C=C(c2c(-n3cnnn3)ccc(Cl)c2F)CC2CC[C@@H](c3ncc(-c4cn[nH]c4Cl)[nH]3)N12 (stereo partly drawn) [Example 366, (3S)-3-(5-(5-chloro-1H-pyrazol-4-yl)-1H-imidazol-2-yl)-7-(3-chloro-2-fluoro-6-(1H-tetrazol-1-yl)phenyl)-2,3,8,8a-tetrahydroindolizin-5(1H)-one]
0.6 nM | 0.0054 µM |  |  | CCC(=O)Nc1ccccc1-c1c[nH]c([C@@H]2CC[C@H]3CC(c4c(-n5cnnn5)ccc(Cl)c4F)=CC(=O)N32)n1 (relative stereo) [Example 296, N-(2-(24(3S,8aS*)-7-(3-Chloro-2-fluoro-6-(1H-tetrazol-1-yl)phenyl)-5-oxo-1,2,3,5,8,8a-hexahydroindolizin-3-yl)-1H-imidazol-4-yl)phenyl)propionamide]
> 100 nM |  |  | > 1 µM | Cn1cnc(-c2c[nH]c([C@@H]3CC[C@H]4CC(c5c(-n6cnnn6)ccc(Cl)c5F)=CC(=O)N43)n2)n1 [Example 274, (3S,8aS)-7-(3-Chloro-2-fluoro-6-(1H-tetrazol-1-yl)phenyl)-3-(4-(1-methyl-1H-1,2,4-triazol-3-yl)-1H-imidazol-2-yl)-2,3,8,8a-tetrahydroindolizin-5(1H)-one]
 | 0.0068 µM | 0.3 nM |  | Nc1ccc(-c2cnc([C@@H]3CC[C@@H]4CC(c5c(-n6cnnn6)ccc(Cl)c5F)=CC(=O)N43)[nH]2)c(F)n1 [Example 358, (3S,8aR)-3-[5-(6-amino-2-fluoro-3-pyridyl)-1H-imidazol-2-yl]-7-[3-chloro-2-fluoro-6-(tetrazol-1-yl)phenyl]-2,3,8,8a-tetrahydro-1H-indolizin-5-one]
4.5 nM | 0.0326 µM |  |  | O=C1C=C(c2c(-n3cnnn3)ccc(Cl)c2F)C[C@H]2CC[C@@H](c3ncc(-c4c[nH]nc4F)[nH]3)N12 [Example 217, (3S,8aR)-7-(3-Chloro-2-fluoro-6-(1H-tetrazol-1-yl)phenyl)-3-(5-(3-fluoro-1H-pyrazol-4-yl)-1H-imidazol-2-yl)-2,3,8,8a-tetrahydroindolizin-5(1H)-one]
2.1 nM | 0.0019 µM |  |  | NC(=O)c1cc(-c2c[nH]c([C@@H]3CCC4CC(c5c(-n6cnnn6)ccc(Cl)c5F)=CC(=O)N43)n2)cs1 (stereo partly drawn) [Example 219, 4-(2-((3S)-7-(3-Chloro-2-fluoro-6-(1H-tetrazol-1-yl)phenyl)-5-oxo-1,2,3,5,8,8a-hexahydroindolizin-3-yl)-1H-imidazol-4-yl)thiophene-2-carboxamide]
